Test results as given in PMC7802075 (ACS Infectious Diseases, 2020).
Where two headings read alike, the source gives them in different places. Where a SMILES comes first, the peptide text is derived from it.

Target: T1, LmjIPCS (inositol phosphorylceramide synthase from L. major) (Leishmania major, UniProt E9AFX2)
T1 sequence (E9AFX2 1-338): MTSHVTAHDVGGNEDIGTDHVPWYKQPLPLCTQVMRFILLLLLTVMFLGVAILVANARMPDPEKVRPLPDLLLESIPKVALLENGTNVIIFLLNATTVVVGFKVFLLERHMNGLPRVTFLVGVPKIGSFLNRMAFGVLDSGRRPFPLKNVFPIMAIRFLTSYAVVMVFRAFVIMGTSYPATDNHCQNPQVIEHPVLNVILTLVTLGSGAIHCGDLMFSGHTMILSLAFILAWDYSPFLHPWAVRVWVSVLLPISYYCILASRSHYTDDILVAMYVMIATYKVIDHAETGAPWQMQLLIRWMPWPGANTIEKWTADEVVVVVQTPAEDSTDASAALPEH
Experiment: biochemical
Assay type: biochemical
Parameters: inhibition: dose or concentration left out as unconfirmed
Settings: for inhibition at 20000 µM: read-out: 20mM inhibition LmjIPCS; for inhibition: read-out: inhibition LmjIPCS

[1] = NINDS set screen, single concentration printed as 20mM
[2] = screening of NINDS set, sheet Screen 1

Work on `c1ccc([C@H]2CN3CCSC3=N2)cc1` [LEVAMISOLE] yielded an inhibition at 20000 µM of 2.52%.

`N[C@@H](Cc1ccc(O)c(O)c1)C(=O)O` [LEVODOPA] showed an inhibition of 21%.

Compound `C[C@H]1COc2c(N3CCN(C)CC3)c(F)cc3c(=O)c(C(=O)O)cn1c23` [LEVOFLOXACIN] has an inhibition of 11%.

For `C[C@H](N)[C@H](O)c1ccc(O)c(O)c1` [LEVONORDEFRIN], the inhibition at 20000 µM was 16%.

`CCN(CC)CC(=O)Nc1c(C)cccc1C` [LIDOCAINE] gave an inhibition at 20000 µM of 2.47%.

For `CCC[C@@H]1C[C@@H](C(=O)N[C@@H]([C@H]2O[C@H](SC)[C@H](O)[C@@H](O)[C@H]2O)[C@@H](C)O)N(C)C1` [LINCOMYCIN], the inhibition at 20000 µM was 8.53%.

`NCCCC[C@H](N[C@@H](CCc1ccccc1)C(=O)O)C(=O)N1CCC[C@H]1C(=O)O` [LISINOPRIL] showed an inhibition of 6%.

`CN1[C@@H](CC(=O)c2ccccc2)CCC[C@H]1C[C@H](O)c1ccccc1` [LOBELINE] was tested, and the “20mM inhibition LmjIPCS” value was 38%.

`CCn1cc(C(=O)O)c(=O)c2cc(F)c(N3CCNC(C)C3)c(F)c21` (centres unmarked) [LOMEFLOXACIN] was tested, and the inhibition was 4%.

Compound `CCOC(=O)N1CCC(=C2c3ccc(Cl)cc3CCc3cccnc32)CC1` [LORATADINE] has an inhibition at 20000 µM of 21%.

Work on `CCCCc1nc(Cl)c(CO)n1Cc1ccc(-c2ccccc2-c2nn[nH]n2)cc1` [LOSARTAN] yielded an inhibition of -2.81%.

In the case of `CC[C@H](C)C(=O)O[C@H]1C[C@@H](C)C=C2C=C[C@H](C)[C@H](CC[C@@H]3C[C@@H](O)CC(=O)O3)[C@H]21` [LOVASTATIN], the “20mM inhibition LmjIPCS” value is reported as 41%.

For `CN1CCN(C2=Nc3ccccc3Oc3ccc(Cl)cc32)CC1` [LOXAPINE], the “20mM inhibition LmjIPCS” value was 68%.

Work on `OC[C@@H]1CCCN2CCCC[C@H]12` [LUPININE] yielded an inhibition at 20000 µM of 11%.

`NCCCC[C@H](N)C(=O)N[C@@H](Cc1ccccc1)C(=O)N[C@@H](Cc1ccc(O)cc1)C(=O)O` [LYSYLPHENYLALANYLTYROSINE] (H-Lys-Phe-Tyr-OH) was tested, and the inhibition at 20000 µM was 4.61%.

With `C[C@H]1[C@H](C)CC[C@]2(C(=O)O)CC[C@]3(C)C(=CC[C@@H]4[C@@]5(C)C[C@@H](O)[C@H](O)[C@@](C)(CO)[C@@H]5[C@H](O)C[C@]43C)[C@H]12` [MADECASSIC ACID] the inhibition was 10%.

`NCc1ccc(S(N)(=O)=O)cc1` [MAFENIDE] showed an inhibition at 20000 µM of 11%.

In the case of `COC(=O)Nc1nc2ccc(C(=O)c3ccccc3)cc2[nH]1` [MEBENDAZOLE], the inhibition is reported as 18%.

In the case of `CCN(CCCCOC(=O)c1ccc(OC)c(OC)c1)C(C)Cc1ccc(OC)cc1` (centres unmarked) [MEBEVERINE], the “20mM inhibition LmjIPCS” value is reported as 54%.

`CNC1(C)C2CCC(C2)C1(C)C` (centres unmarked) [MECAMYLAMINE] was tested, and the inhibition (NINDS set screen) was 17%.

`C=C1c2c(Cl)ccc(O)c2C(=O)C2=C(O)[C@]3(O)C(=O)C(C(N)=O)=C(O)[C@@H](N(C)C)[C@@H]3[C@@H](O)[C@H]12` [MECLOCYCLINE] was tested, and the “20mM inhibition LmjIPCS” value [1] was 67%.

`Cc1ccc(Cl)c(Nc2ccccc2C(=O)O)c1Cl` [MECLOFENAMATE] was tested, and the inhibition at 20000 µM was 6%.

With `CC(=O)O[C@]1(C(C)=O)CC[C@H]2[C@@H]3C[C@H](C)C4=CC(=O)CC[C@]4(C)[C@H]3CC[C@@]21C` [MEDROXYPROGESTERONE ACETATE] the inhibition (NINDS set screen) was 17%.

Work on `CC(=O)[C@H]1CC[C@H]2[C@@H]3C[C@H](C)C4=CC(=O)CC[C@]4(C)[C@H]3[C@@H](O)C[C@]12C` [MEDRYSONE] yielded an inhibition at 20000 µM of 14%.

`Cc1cccc(Nc2ccccc2C(=O)O)c1C` [MEFENAMIC ACID] gave an inhibition (NINDS set screen) of -9%.

`CCN(CC)CCNC(=O)COc1ccc(OC)cc1` [MEFEXAMIDE] showed an inhibition (NINDS set screen) of 13%.

For `OC(c1cc(C(F)(F)F)nc2c(C(F)(F)F)cccc12)C1CCCCN1` (centres unmarked) [MEFLOQUINE], the “20mM inhibition LmjIPCS” value was 49%.

`CC(=O)O[C@]1(C(C)=O)CC[C@H]2[C@@H]3C=C(C)C4=CC(=O)CC[C@]4(C)[C@H]3CC[C@@]21C` [MEGESTROL ACETATE] showed an inhibition at 20000 µM of 15%.

For `COc1ccc2[nH]cc(CCNC(C)=O)c2c1` [MELATONIN], the inhibition was -5.63%.

For `Cc1cnc(NC(=O)C2=C(O)c3ccccc3S(=O)(=O)N2C)s1` [MELOXICAM], the inhibition was 11%.

With `CC12CC3CC(C)(C1)CC(N)(C3)C2` [MEMANTINE] the “20mM inhibition LmjIPCS” value [1] was 66%.

For `CC1=CC(=O)c2ccccc2C1=O` [MENADIONE], the “20mM inhibition LmjIPCS” value was 43%.

For `CC1CCC(C(C)C)C(O)C1` (stereo not drawn) [MENTHOL(-)], the “20mM inhibition LmjIPCS” value (single concentration 20mM as printed, screening of NINDS set, sheet Screen 1) was 4%.

`C[N+]1(C)CCCC(OC(=O)C(O)(c2ccccc2)c2ccccc2)C1` (centres unmarked) [MEPENZOLATE BROMIDE] showed an inhibition at 20000 µM of 16%.

For `Cc1ccccc1OCC(O)CO` (centres unmarked) [MEPHENESIN], the inhibition [2] was 3.35%.

`CNC(C)(C)Cc1ccccc1` [MEPHENTERMINE] showed an inhibition at 20000 µM of 22%.

With `Cc1cccc(C)c1NC(=O)C1CCCCN1C` (centres unmarked) [MEPIVACAINE] the “20mM inhibition LmjIPCS” value was 55%.

Work on `S=c1[nH]cnc2nc[nH]c12` [MERCAPTOPURINE] yielded an inhibition [2] of 6%.

Work on `O=S(=O)(O)CCS` [MESNA] yielded an inhibition at 20000 µM of -0.783%.

`C=N[C@@H](C(=O)N[C@@H]1C(=O)N2[C@@H]1SC(C)(C)[C@@H]2C(=O)O)c1ccccc1` [METAMPICILLIN] showed an inhibition [2] of 10%.

`CC(C)NCC(O)c1cc(O)cc(O)c1` (centres unmarked) [METAPROTERENOL] was tested, and the inhibition at 20000 µM was 7%.

`C[C@H](N)[C@H](O)c1cccc(O)c1` [METARAMINOL] was tested, and the “20mM inhibition LmjIPCS” value was 58%.

For `Cc1cc(C)cc(OCC2CNC(=O)O2)c1` (centres unmarked) [METAXALONE], the inhibition (NINDS set screen) was -4.75%.

For `CN1C[C@H](CNC(=O)OCc2ccccc2)C[C@@H]2c3cccc4c3c(cn4C)C[C@H]21` [METERGOLINE], the inhibition was 11%.

With `CC(=O)OC(C)C[N+](C)(C)C` (centres unmarked) [METHACHOLINE CHLORIDE] the inhibition at 20000 µM was -18%.

In the case of `C=C1c2cccc(O)c2C(=O)C2=C(O)[C@]3(O)C(=O)C(C(N)=O)=C(O)[C@@H](N(C)C)[C@@H]3[C@@H](O)[C@H]12` [METHACYCLINE], the inhibition at 20000 µM is reported as 33%.

For `CC(=O)/N=c1/sc(S(N)(=O)=O)nn1C` [METHAZOLAMIDE], the inhibition (NINDS set screen) was -4.59%.

Work on `C1N2CN3CN1CN(C2)C3` [METHENAMINE] yielded an inhibition [2] of 6%.

Work on `COc1cccc(OC)c1C(=O)N[C@@H]1C(=O)N2[C@@H]1SC(C)(C)[C@@H]2C(=O)O` [METHICILLIN] yielded an inhibition at 20000 µM of 17%.

With `Cn1cc[nH]c1=S` [METHIMAZOLE] the inhibition (NINDS set screen) was 13%.

For `CSc1ccc2c(c1)C(N1CCN(C)CC1)Cc1ccccc1S2` (centres unmarked) [METHIOTHEPIN], the “20mM inhibition LmjIPCS” value [1] was 55%.

`COc1ccccc1OCC(O)COC(N)=O` (centres unmarked) [METHOCARBAMOL] showed an inhibition at 20000 µM of 13%.

Compound `CN(Cc1cnc2nc(N)nc(N)c2n1)c1ccc(C(=O)N[C@@H](CCC(=O)O)C(=O)O)cc1` [METHOTREXATE] has an inhibition of 8%.

`COc1ccc(OC)c(C(O)C(C)N)c1` (centres unmarked) [METHOXAMINE] gave an inhibition at 20000 µM of 24%.

In the case of `CON` [METHOXYAMINE], the “20mM inhibition LmjIPCS” value is reported as 12%.

`C[N+]1(C)[C@@H]2C[C@@H](OC(=O)[C@H](CO)c3ccccc3)C[C@H]1[C@@H]1O[C@@H]12` [METHSCOPOLAMINE BROMIDE] gave an inhibition at 20000 µM of 10%.

With `Cc1cc(C(C)(C)CC(C)(C)C)ccc1OCCOCC[N+](C)(C)Cc1ccccc1.[Cl-]` [METHYLBENZETHONIUM CHLORIDE] the “20mM inhibition LmjIPCS” value (NINDS set screen, compound at 20mM (so in the source)) was 12%.

`C[C@](N)(Cc1ccc(O)c(O)c1)C(=O)O` [METHYLDOPA] gave an inhibition [2] of 8%.

For `CC[C@@H](CO)NC(=O)[C@@H]1C=C2c3cccc4[nH]cc(c34)C[C@H]2N(C)C1` [METHYLERGONOVINE], the “20mM inhibition LmjIPCS” value was 35%.

`C[C@H]1C[C@@H]2[C@H]([C@@H](O)C[C@@]3(C)[C@H]2CC[C@]3(O)C(=O)CO)[C@@]2(C)C=CC(=O)C=C12` [METHYLPREDNISOLONE] gave an inhibition (NINDS set screen) of 16%.

`Cc1cc(=O)[nH]c(=S)[nH]1` [METHYLTHIOURACIL] showed an inhibition [2] of 7%.

`CCN(CC)CCNC(=O)c1cc(Cl)c(N)cc1OC` [METOCLOPRAMIDE] showed an inhibition of 6%.
